# The supplement of paper PMC10331698
# ± gives the standard deviation of the averaged measurements.
# Legend:
# Assay in all cases: level (log10 ratio to DMSO vehicle control); higher = higher biomarker level / cell amount than vehicle control
# [1] = compound: COC(=O)C(F)(F)C(F)(F)OC(F)(C(F)(F)F)C(F)(F)OC(F)=C(F)F [Methyl perfluoro(3-(1-ethenyloxypropan-2-yloxy)propanoate)]; details: in DMSO
# Procedure: (§1)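 BioMAP Diversity Plus panel of 12 human primary cell co-culture systems (3C, 4H, LPS, SAg, BT, BF4T, BE3C, CASM3C, HDF3CGF, KF3CT, MyoF, Mphg). Compounds were added 1 h before stimulation and left for 24 h (MyoF 48 h; BT 72 h for soluble read-outs or 6 d for IgG). Biomarkers were read by ELISA, cytotoxicity by SRB, PBMC viability and proliferation by Alamar Blue. Each well value was divided by the mean of 8 DMSO control wells on the same plate and log10 transformed; duplicate blinded samples were tested at 4 concentrations.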
# [2] = compound: FC(F)(F)C(F)(F)C(F)(F)CC1CO1 [1H,1H-Heptafluorobutyl epoxide]; details: in DMSO
# Procedure: as §1
# [3] = compound: NS(=O)(=O)C(F)(F)C(F)(F)C(F)(F)C(F)(F)C(F)(F)C(F)(F)F [Perfluorohexanesulfonamide]; details: in DMSO
# Procedure: as §1
# [4] = compound: C=CC(=O)OCC(F)(F)C(F)(F)C(F)(F)COC(=O)C=C [1H,1H,5H,5H-Perfluoro-1,5-pentanediol diacrylate]; details: 6700 nM; in DMSO
# Procedure: as §1
# [5] = compound: NC(=O)C(F)(F)C(F)(F)C(F)(F)C(F)F; details: in DMSO
# Procedure: as §1
# [6] = compound: C=C(C)C(=O)OCCC(F)(F)C(F)(F)C(F)(F)C(F)(F)C(F)(F)C(F)(F)F [6:2 Fluorotelomer methacrylate]; details: in DMSO
# Procedure: as §1
Test System,level (log10) ([1]; 6700 nM),level (log10) ([1]; 20000 nM),level (log10) ([2]; 6700 nM),level (log10) ([2]; 20000 nM),level (log10) ([2]; 60000 nM),level (log10) ([3]; 6700 nM),level (log10) ([3]; 20000 nM),level (log10) ([3]; 60000 nM),level (log10) [4],level (log10) ([5]; 6700 nM),level (log10) ([5]; 20000 nM),level (log10) ([5]; 60000 nM),level (log10) ([6]; 6700 nM),level (log10) ([6]; 20000 nM),level (log10) ([6]; 60000 nM)
lMphg:CCL3/MIP-1alpha,0.032 ± 0.031,0.0655 ± 0.026,-0.039 ± 0.0057,-0.0135 ± 0.019,0.0135 ± 0.015,-0.0025 ± 0.00071,-0.034 ± 0.044,-0.0145 ± 0.0092,-0.008 ± 0.0057,-0.039 ± 0.0099,-0.0295 ± 0.018,-0.006 ± 0.0028,0.0005 ± 0.066,-0.0185 ± 0.061,0.003 ± 0.04
HDF3CGF:Collagen III,-0.059 ± 0.072,-0.079 ± 0.016,-0.0355 ± 0.1,-0.0515 ± 0.1,-0.0555 ± 0.1,0.0055 ± 0.022,0.0305 ± 0.011,-0.1 ± 0.018,-0.177 ± 0.015,-0.011 ± 0.0042,-0.0155 ± 0.012,-0.0165 ± 0.00071,-0.0285 ± 0.044,-0.007 ± 0.041,0.003 ± 0.052
CASM3C:LDLR,-0.0035 ± 0.005,0.0085 ± 0.033,-0.007 ± 0.0028,-0.015 ± 0.0057,0.002 ± 0.0099,-0.003 ± 0.014,-0.0105 ± 0.005,-0.04 ± 0.011,-0.004 ± 0.0014,-0.008,-0.006 ± 0.024,0.031 ± 0.042,-0.0185 ± 0.026,-0.001 ± 0.025,-0.016 ± 0.0099
KF3CT:MMP-9,-0.0375 ± 0.0021,-0.054 ± 0.0071,-0.0085 ± 0.028,-0.012 ± 0.0099,-0.0205 ± 0.013,-0.015 ± 0.02,-0.039 ± 0.03,-0.093 ± 0.021,-0.0525 ± 0.043,-0.0095 ± 0.013,0.002 ± 0.025,0.0125 ± 0.023,-0.0275 ± 0.056,-0.0145 ± 0.03,-0.009 ± 0.0042
KF3CT:PAI-I,0.0045 ± 0.019,-0.0045 ± 0.012,-0.0145 ± 0.00071,-0.0115 ± 0.018,-0.014 ± 0.0085,0.0045 ± 0.016,0.0035 ± 0.021,-0.0285 ± 0.022,0.014 ± 0.0028,-0.005 ± 0.0042,-0.0085 ± 0.0064,-0.007 ± 0.02,-0.0465 ± 0.018,-0.035 ± 0.016,-0.0535 ± 0.03
CASM3C:CCL2/MCP-1,-0.001 ± 0.0014,0.008 ± 0.016,-0.007 ± 0.023,-0.0275 ± 0.00071,0.004 ± 0.014,-0.006 ± 0.0014,0.0015 ± 0.012,0.028 ± 0.017,0 ± 0.0085,-0.0055 ± 0.013,-0.011 ± 0.018,0.015 ± 0.045,-0.005 ± 0.0028,-0.011 ± 0.0014,-0.0015 ± 0.021
HDF3CGF:TIMP-2,-0.043 ± 0.0028,-0.051 ± 0.028,-0.0395 ± 0.16,-0.061 ± 0.11,-0.038 ± 0.1,0.012 ± 0.023,0.0005 ± 0.0021,-0.157 ± 0.0057,0.0805 ± 0.016,0.015 ± 0.025,0.027 ± 0.033,0.003 ± 0.0028,0.0065 ± 0.087,0.018 ± 0.085,0.022 ± 0.082
BE3C:MMP-1,0.102 ± 0.025,0.176 ± 0.0092,0.003 ± 0.027,0.002 ± 0.055,0.041 ± 0.092,0.0255 ± 0.015,0.0645 ± 0.0035,0.195 ± 0.02,0.0115 ± 0.0078,0.003 ± 0.054,-0.001 ± 0.0014,0.024 ± 0.0057,0.0525 ± 0.0035,0.046 ± 0.0057,0.0375 ± 0.0078
lMphg:CD106/VCAM-1,-0.008 ± 0.025,-0.006 ± 0.025,0.003 ± 0.011,0.012 ± 0.016,0.0095 ± 0.011,-0.0155 ± 0.025,-0.012 ± 0.024,-0.0805 ± 0.018,-0.0615 ± 0.025,0 ± 0.013,0.006 ± 0.0014,-0.003 ± 0.017,-0.024 ± 0.013,-0.007 ± 0.021,-0.021 ± 0.011
lMphg:IL-1alpha,0.0435 ± 0.035,0.118 ± 0.0021,-0.012 ± 0.0071,-0.025 ± 0.0071,-0.002 ± 0.028,0.019 ± 0.052,0.114 ± 0.016,0.148 ± 0.0028,0.045 ± 0.024,-0.0425 ± 0.023,-0.0465 ± 0.00071,0.0365 ± 0.047,-0.0445 ± 0.076,-0.03 ± 0.02,-0.0305 ± 0.069
4H:CD87/uPAR,0.0215 ± 0.019,0.047 ± 0.044,-0.0465 ± 0.06,-0.055 ± 0.045,-0.006 ± 0.021,-0.01 ± 0.011,0.0115 ± 0.013,-0.0605 ± 0.047,-0.0665 ± 0.13,0.0335 ± 0.013,0.044 ± 0.033,0.006 ± 0.038,-0.015 ± 0.025,0.0015 ± 0.019,-0.0095 ± 0.0035
MyoF:bFGF,0.016 ± 0.0099,0.037 ± 0.021,-0.0035 ± 0.0035,-0.002 ± 0.0028,-0.0025 ± 0.015,-0.0005 ± 0.00071,-0.001 ± 0.0042,-0.004 ± 0.023,0.0025 ± 0.005,-0.0125 ± 0.005,-0.008 ± 0.017,-0.0155 ± 0.005,-0.0025 ± 0.0064,-0.0115 ± 0.018,-0.0085 ± 0.011
lMphg:CD69,-0.067 ± 0.047,-0.0985 ± 0.07,-0.0285 ± 0.0064,0.005 ± 0.041,0.045 ± 0.081,-0.02 ± 0.023,-0.066 ± 0.02,-0.169 ± 0.0085,-0.0015 ± 0.0078,0.0265 ± 0.018,-0.015 ± 0.0071,-0.0115 ± 0.0078,-0.0125 ± 0.049,-0.046 ± 0.0028,-0.0915 ± 0.019
HDF3CGF:CCL2/MCP-1,0.023 ± 0.0042,0.0305 ± 0.029,-0.0325 ± 0.032,-0.034 ± 0.02,-0.02 ± 0.0099,0.0185 ± 0.016,0.047 ± 0.018,0.091 ± 0.014,-1.14 ± 0.03,-0.017 ± 0.054,-0.004 ± 0.04,0.0095 ± 0.028,-0.0445 ± 0.0092,-0.0295 ± 0.005,-0.048 ± 0.0028
CASM3C:CD106/VCAM-1,-0.024 ± 0.011,-0.04 ± 0.021,-0.015 ± 0.035,-0.031 ± 0.014,0.0055 ± 0.013,-0.014 ± 0.016,-0.0285 ± 0.005,-0.0235 ± 0.0064,-0.119 ± 0.011,-0.009 ± 0.0057,-0.003 ± 0.014,-0.008 ± 0.014,-0.0005 ± 0.011,-0.005 ± 0.016,-0.005 ± 0.0042
CASM3C:SRB,0.0015 ± 0.0021,0.006 ± 0.0014,-0.006 ± 0.014,0.0055 ± 0.0035,-0.0035 ± 0.005,0.004 ± 0.013,0.006 ± 0.013,-0.0035 ± 0.0078,-0.0025 ± 0.0021,0.0025 ± 0.00071,-0.0115 ± 0.005,-0.0085 ± 0.016,0.001 ± 0.0057,-0.0035 ± 0.0021,0.002 ± 0.0042
3C:Proliferation,-0.056 ± 0.048,-0.111 ± 0.0092,-0.0245 ± 0.028,-0.015 ± 0.033,0.004 ± 0.035,-0.0605 ± 0.011,-0.0635 ± 0.069,-0.334 ± 0.024,-0.379 ± 0.12,-0.0385 ± 0.049,-0.038 ± 0.061,-0.03 ± 0.031,0.0005 ± 0.028,-0.003 ± 0.089,-0.013 ± 0.0085
MyoF:alpha-SM Actin,-0.023 ± 0.021,-0.043 ± 0.047,0.012 ± 0.028,-0.0095 ± 0.039,0.0125 ± 0.08,-0.003 ± 0.035,0.01 ± 0.033,0.004 ± 0.0057,-0.208 ± 0.024,-0.006 ± 0.0057,0.0025 ± 0.023,-0.002 ± 0.033,0.003 ± 0.011,-0.02 ± 0.038,-0.0015 ± 0.018
HDF3CGF:Collagen I,0.013 ± 0.095,0.069,-0.0105 ± 0.029,0.0175 ± 0.023,-0.013 ± 0.028,0.005 ± 0.035,0.0075 ± 0.011,-0.0435 ± 0.015,0.117 ± 0.0085,-0.005 ± 0.058,0.005 ± 0.021,0.027 ± 0.02,-0.0655 ± 0.022,-0.0695 ± 0.049,0.0095 ± 0.097
HDF3CGF:CXCL9/MIG,0.01 ± 0.0014,-0.063 ± 0.014,-0.03 ± 0.031,-0.03 ± 0.068,-0.062 ± 0.05,0.0165 ± 0.019,0.01 ± 0.028,-0.061 ± 0.037,-0.779,0.0055 ± 0.00071,-0.0065 ± 0.012,-0.0025 ± 0.0035,0.0025 ± 0.019,0.0095 ± 0.00071,0.015 ± 0.0085
